Patent publication US20220047589A1, “PDE9 INHIBITORS FOR TREATING THALASSEMIA” (Imara Inc., priority 2019, published 2022)
“Also recorded” adds a separate entry of the source.

Columns and labels:
Hbb^th1 mice [1] = experiment: In vivo study in Hbb^th1 thalassemia mice: blood Hb and RBC levels; parameters: species or system mouse
Protocol: (§1) This model was used to evaluate the effect of Compound 1 to treat thalassemia.
(§2) Hbb^th1 mice were given Compound 1 dissolved in 10:90 DMSO:corn oil once daily, by oral gavage, at either a high dose (60 mg/kg) or a low dose (30 mg/kg). A normal (C57BL/6) mouse was included as a control in the study to establish baselines along with a Hbb^th1 vehicle mouse not given Compound 1. Animals were observed once daily for morbidity and mortality. Mice were not allowed to recover from anesthesia and were killed by cervical dislocation while still anesthetized. Necropsy was limited to removal and weighing of the spleen for further analysis.
Blood was collected on day 30, from the retroorbital sinus of all mice, while mice were under isoflurane anesthesia, using heparin capillaries and EDTA-coated tubes. Parameters measured were: Hb levels and RBC levels.

Hbb^th1 mice [2] = experiment: Erythroblast differentiation (RBC maturation) in spleen cells of treated Hbb^th1 mice by flow cytometry; type: in vivo, mouse; settings: 30 or 60 mg/kg once daily by oral gavage
Protocol: as §1, §2
RBC maturation is a key mechanistic component in reducing pathology of thalassemia. Therefore, immature RBC (Ery.B: late basophilic and polychromatic) percentage, mature RBC (Ery.C: ortochromatic and reticulocytes) percentage, and maturation index were also measured. […] Cells were further analyzed by flow cytometry (Gallios, Beckman) using FlowJo software v.10.1 (FlowJo, LLC). Results were expressed as the percentage of Ery.B (Live-Dead^neg, Ter-119^pos, CD71^pos, FSC^low) or Ery.C (Live-Dead^neg, Ter-119^pos, CD71^neg, FSC^low) populations. Maturation index was calculated as Ery.B/Ery.C ratio.

[3] = Effect of food on adverse event profile on once-daily administration to patients; type: in vivo; settings: once a day with food
Protocol: In some embodiments, Compound 1, or a pharmaceutically acceptable salt, solvate, or polymorph thereof is administered to a patient, wherein Compound 1, or a pharmaceutically acceptable salt, solvate, or polymorph thereof is administered once a day with food. […] The incidence and severity of the side effects, such as nausea, emesis and headache, can be reduced when Compound 1, or a pharmaceutically acceptable salt, solvate, or polymorph thereof is taken with food.

For C[C@@H]1CN(Cc2ncccn2)C[C@H]1c1cn2c(C3CCOCC3)ncc2c(=O)[nH]1 [Compound 1, 6-[(3S,4S)-4-methyl-1-(pyrimidin-2-ylmethyl)pyrrolidin-3-yl]-3-tetrahydropyran-4-yl-7H-imidazo[1,5-a]pyrazin-8-one], the “Hb levels (total Hb amount)” value (Hbb^th1 mice [1]; 30 or 60 mg/kg once daily by oral gavage, blood on day 30, FIG. 1A) was “increase Hb levels; also recorded: increases the total Hb amount”, the “RBC levels (RBC amount)” value (Hbb^th1 mice [1]; 30 or 60 mg/kg once daily by oral gavage, blood on day 30, FIG. 1B) was “increased RBC levels; also recorded: increases” and the “increase of total Hb vs. control groups” value (Hbb^th1 mice [1]; high dose (60 mg/kg), once daily by oral gavage, blood collected on day 30) was 1.3 g/dL. The “immature RBC (Ery.B) percentage” value (Hbb^th1 mice [2]; FIG. 2A) was “reduces immature RBC cell percentages; also recorded: reduces immature RBC levels”, the “mature RBC (Ery.C) percentage” value (Hbb^th1 mice [2]; FIG. 2B) was “increases mature RBC cell percentages; also recorded: increases mature RBC levels” and the “adverse event profile (nausea, emesis, headache) when taken with food” value [3] was “food reduce the adverse event profile dramatically”.
